Assay results from the supplement of paper PMC10307832.

Columns and labels:
Test in all cases: relative viability (nuclei count vs DMSO), 5 days (fraction); higher = more cells survive
[1] = compound: C1=CC=C2C(=C1)N=C(S2)C(C#N)C3=NC(=NC=C3)NCCC4=CN=CC=C4 + Cc1cc(Nc2cc(N3CCN(C)CC3)nc(Sc3ccc(NC(=O)C4CC4)cc3)n2)n[nH]1 [Tozasertib] (partner 0.1 µM)
Outline: (§1)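 After 5 days of treatment, lung cancer cells in 1536-well plates were fixed and stained in a single step (final 0.05% Triton X-100, 1% formaldehyde, 1 ug/ml Hoechst) and their nuclei counted on 4× images. Treatment had been applied by pin tool the day after seeding as one drug alone or as a fixed anchor-drug dose with five library-drug doses (not always all listed) in √10 steps. Relative viability is the nuclei count of treated wells divided by that of vehicle wells, and values are medians of duplicate plates.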

Vandetanib + Palbociclib = compound: COc1cc2/c(=N/c3ccc(Br)cc3F)nc[nH]c2cc1OCC1CCN(C)CC1 [Vandetanib] + CC(=O)c1c(C)c2cnc(Nc3ccc(N4CCNCC4)cn3)nc2n(C2CCCC2)c1=O [Palbociclib] (partner 0.5 µM)
Outline: as §1

[2] = compound: C1=CC=C2C(=C1)N=C(S2)C(C#N)C3=NC(=NC=C3)NCCC4=CN=CC=C4 + O=C(CCCCCCC(=O)Nc1ccccc1)NO [Vorinostat] (partner 1 µM)
Outline: as §1

CUDC-101 + Palbociclib = compound: C#Cc1cccc(Nc2ncnc3cc(OC)c(OCCCCCCC(=O)NO)cc23)c1 [CUDC-101] + CC(=O)c1c(C)c2cnc(Nc3ccc(N4CCNCC4)cn3)nc2n(C2CCCC2)c1=O [Palbociclib] (partner 0.5 µM)
Outline: as §1

## UMC-11
[1]; first compound 0.005 µM
  relative viability: 0.212
[1]; first compound 0.01581 µM
  relative viability: 0.214
[1]; first compound 0.05 µM
  relative viability: 0.177
[1]; first compound 0.1581 µM
  relative viability: 0.249
[1]; first compound 0.5 µM
  relative viability: 0.206
Vandetanib + Palbociclib; first compound 0.02 µM
  relative viability: 0.345
Vandetanib + Palbociclib; first compound 0.06325 µM
  relative viability: 0.336
Vandetanib + Palbociclib; first compound 0.2 µM
  relative viability: 0.321
Vandetanib + Palbociclib; first compound 0.6325 µM
  relative viability: 0.348
Vandetanib + Palbociclib; first compound 2 µM
  relative viability: 0.345
[2]; first compound 0.01581 µM
  relative viability: 0.36
[2]; first compound 0.05 µM
  relative viability: 0.402
[2]; first compound 0.1581 µM
  relative viability: 0.42
[2]; first compound 0.5 µM
  relative viability: 0.422
CUDC-101 + Palbociclib; first compound 0.01 µM
  relative viability: 0.346
CUDC-101 + Palbociclib; first compound 0.03162 µM
  relative viability: 0.375
CUDC-101 + Palbociclib; first compound 0.1 µM
  relative viability: 0.323
CUDC-101 + Palbociclib; first compound 0.3162 µM
  relative viability: 0.277
CUDC-101 + Palbociclib; first compound 1 µM
  relative viability: 0.228
